Data published in EP0600782A1, “C-11 modified pradimicin derivatives” (priority 1992, dated 1994).
In brackets after ≈: the same amount, converted by molar mass.

Key:
[1] = test system: Candida albicans A9540; assay: In vitro antifungal activity (MIC), agar dilution on yeast morphology agar; format: cell-based; conditions: YMA, 0.06M phosphate (pH 7.0), 28°C, 40 hours, read-out: MIC Ca-4
Description: (§1) The in vitro antifungal activity (MIC) of the compounds of the invention was determined on yeast morphology agar (YMA, Difco Laboratories, USA), buffered with 0.06M phosphate (pH 7.0). Nine parts of molten agar were combined with one part of antibiotic dilution in petri dishes. A 5-µl suspension containing 2x10⁶ cells/ml was spotted on the surface of the agar plates. The plates were incubated at 28°C and MICs were recorded after 40 hours of the incubation. All of the 11-hydroxy derivatives of Formula I-I are active against a wide range of fungi.

[2] = test system: Candida tropicalis IFO10241; assay: as above; format: cell-based; conditions: YMA, 0.06M phosphate (pH 7.0), 28°C, 40 hours, read-out: MIC Ct-12
Description: as §1

[3] = test system: Cryptococcus neoformans IAM4514; assay: as above; format: cell-based; conditions: YMA, 0.06M phosphate (pH 7.0), 28°C, 40 hours, read-out: MIC Cn-2
Description: as §1

[4] = test system: Strain AA 3798; assay: Antibiotic susceptibility of the producing strain, antibiotic disks; format: cell-based, unidentified actinomycete; conditions: yeast-glucose-malt agar, 37°C, 4 days
Description: Antibiotic susceptibility of strain AA 3798 was examined using antibiotic disks (Tridisk, Eiken Chemical Co., Ltd). The disks were placed onto the surface of yeast-glucose-malt agar (yeast extract 0.1%, glucose 1%, malt extract 0.1%, CaCl₂·2H₂O 0.05%, and agar 1.5%) which had been seeded by strain AA 3798 (4% inoculum), and the plates were then incubated at 37°C for 4 days.

Work on CNC1C(C)OC(OC2c3cc(C)c(C(=O)NC(C)C(=O)O)c(O)c3-c3c(cc4c(c3O)C(=O)c3cc(O)cc(O)c3C4=O)C2O)C(O)C1OC1OCC(O)C(O)C1O (stereo not drawn) [Compound IA, 11-O-Demethylpradimicin A] yielded an MIC [1] of 6.3 µg/mL (≈ 7.62 µM), an MIC [2] of 25 µg/mL (≈ 30.2 µM) and an MIC [3] of 3.1 µg/mL (≈ 3.75 µM).

With Cc1cc2c(c(O)c1C(=O)NC(C)C(=O)O)-c1c(cc3c(c1O)C(=O)c1cc(O)cc(O)c1C3=O)C(O)C2OC1OC(C)C(N)C(OC2OCC(O)C(O)C2O)C1O (stereo not drawn) [IC, 11-O-Demethylpradimicin C] the MIC [1] was 6.3 µg/mL (≈ 7.75 µM), the MIC [2] was 12.5 µg/mL (≈ 15.4 µM) and the MIC [3] was 1.6 µg/mL (≈ 1.97 µM).

With CNC1C(C)OC(OC2c3cc(C)c(C(=O)NC(CO)C(=O)O)c(O)c3-c3c(cc4c(c3O)C(=O)c3cc(O)cc(O)c3C4=O)C2O)C(O)C1OC1OCC(O)C(O)C1O (stereo not drawn) [ID, 11-O-Demethylpradimicin FA-1] the MIC [1] was 6.3 µg/mL (≈ 7.48 µM), the MIC [2] was 12.5 µg/mL (≈ 14.8 µM) and the MIC [3] was 3.1 µg/mL (≈ 3.68 µM).

With Cc1cc2c(c(O)c1C(=O)NC(CO)C(=O)O)-c1c(cc3c(c1O)C(=O)c1cc(O)cc(O)c1C3=O)C(O)C2OC1OC(C)C(N(C)C)C(OC2OCC(O)C(O)C2O)C1O (stereo not drawn) [IE, 11-O-Demethyl-BMS-181182] the MIC [1] was 6.3 µg/mL (≈ 7.35 µM), the MIC [2] was 25 µg/mL (≈ 29.2 µM) and the MIC [3] was 6.3 µg/mL (≈ 7.35 µM).

With Cc1cc2c(c(O)c1C(=O)NC(CO)C(=O)O)-c1c(cc3c(c1O)C(=O)c1cc(O)cc(O)c1C3=O)C(O)C2OC1OC(C)C(O)C(OC2OCC(O)C(O)C2O)C1O (stereo not drawn) [IF, 11-O-Demethyl-BMS-181184] the MIC [1] was 6.3 µg/mL (≈ 7.59 µM), the MIC [2] was 12.5 µg/mL (≈ 15.1 µM) and the MIC [3] was 12.5 µg/mL (≈ 15.1 µM).

With CCOc1cc(O)c2c(c1)C(=O)c1c(cc3c(c1O)-c1c(cc(C)c(C(=O)NCC(=O)O)c1O)[C@H](O[C@@H]1O[C@H](C)[C@H](O)[C@H](O[C@@H]4OC[C@@H](O)[C@H](O)[C@H]4O)[C@H]1O)[C@H]3O)C2=O [IIA, 11-O-Dexylosyl-11-O-ethylpradimicin T1] the MIC [1] was 3.1 µg/mL (≈ 3.75 µM), the MIC [2] was 12.5 µg/mL (≈ 15.1 µM) and the MIC [3] was 1.6 µg/mL (≈ 1.93 µM).

Cc1cc2c(c(O)c1C(=O)NCC(=O)O)-c1c(cc3c(c1O)C(=O)c1cc(OCCF)cc(O)c1C3=O)[C@H](O)[C@H]2O[C@@H]1O[C@H](C)[C@H](O)[C@H](O[C@@H]2OC[C@@H](O)[C@H](O)[C@H]2O)[C@H]1O [IIB, 11-O-Dexylosyl-11-O-(2-fluoroethyl)pradimicin T1] showed an MIC [1] of 3.1 µg/mL (≈ 3.67 µM), an MIC [2] of 6.3 µg/mL (≈ 7.45 µM) and an MIC [3] of 1.6 µg/mL (≈ 1.89 µM).

C=CCOc1cc(O)c2c(c1)C(=O)c1c(cc3c(c1O)-c1c(cc(C)c(C(=O)NCC(=O)O)c1O)[C@H](O[C@@H]1O[C@H](C)[C@H](O)[C@H](O[C@@H]4OC[C@@H](O)[C@H](O)[C@H]4O)[C@H]1O)[C@H]3O)C2=O [IIC, 11-O-Allyl-11-O-dexylosylpradimicin T1] gave an MIC [1] of 6.3 µg/mL (≈ 7.5 µM), an MIC [2] of 12.5 µg/mL (≈ 14.9 µM) and an MIC [3] of 3.1 µg/mL (≈ 3.69 µM).

With Cc1cc2c(c(O)c1C(=O)NCC(=O)O)-c1c(cc3c(c1O)C(=O)c1cc(OCc4ccccc4)cc(O)c1C3=O)[C@H](O)[C@H]2O[C@@H]1O[C@H](C)[C@H](O)[C@H](O[C@@H]2OC[C@@H](O)[C@H](O)[C@H]2O)[C@H]1O [IID, 11-O-Benzyl-11-O-dexylosylpradimicin T1] the MIC [1] was over 100 µg/mL, the MIC [2] was over 100 µg/mL and the MIC [3] was 12.5 µg/mL (≈ 14 µM).

Compound CNC1C(C)OC(OC2c3cc(C)c(C(=O)NC(C)C(=O)O)c(O)c3-c3c(cc4c(c3O)C(=O)c3cccc(O)c3C4=O)C2O)C(O)C1OC1OCC(O)C(O)C1O (stereo not drawn) [IIG, 11-Demethoxypradimicin A] has an MIC [1] of 6.3 µg/mL (≈ 7.77 µM), an MIC [2] of 12.5 µg/mL (≈ 15.4 µM) and an MIC [3] of 1.6 µg/mL (≈ 1.97 µM).

Cc1cc2c(c(O)c1C(=O)NCC(=O)O)-c1c(cc3c(c1O)C(=O)c1cccc(O)c1C3=O)[C@H](O)[C@H]2O[C@@H]1O[C@H](C)[C@H](O)[C@H](O[C@@H]2OC[C@@H](O)[C@H](O)[C@H]2O)[C@H]1O [III, 11-Dexylosyloxypradimicin T1] was tested, and the MIC [1] was 6.3 µg/mL (≈ 8.04 µM), the MIC [2] was 12.5 µg/mL (≈ 16 µM) and the MIC [3] was 6.3 µg/mL (≈ 8.04 µM).

Cc1cc2c(c(O)c1C(=O)NCC(=O)O)-c1c(cc3c(c1O)C(=O)c1cc(N(C)C)cc(O)c1C3=O)[C@H](O)[C@H]2O[C@@H]1O[C@H](C)[C@H](O)[C@H](O[C@@H]2OC[C@@H](O)[C@H](O)[C@H]2O)[C@H]1O [IIJ, 11-Dexylosyloxy-11-dimethylaminopradimicin T1] was tested, and the MIC [1] was 12.5 µg/mL (≈ 15.1 µM), the MIC [2] was over 100 µg/mL and the MIC [3] was 50 µg/mL (≈ 60.5 µM).

In the case of Cc1cc2c(c(O)c1C(=O)NCC(=O)O)-c1c(cc3c(c1O)C(=O)c1cc(C(N)=O)cc(O)c1C3=O)[C@H](O)[C@H]2O[C@@H]1O[C@H](C)[C@H](O)[C@H](O[C@@H]2OC[C@@H](O)[C@H](O)[C@H]2O)[C@H]1O [IIK, 11-Carbamoyl-11-dexylosyloxy pradimicin T1], the MIC [1] is reported as 12.5 µg/mL (≈ 15.1 µM), the MIC [2] is reported as 25 µg/mL (≈ 30.2 µM) and the MIC [3] is reported as 6.3 µg/mL (≈ 7.62 µM).

With Cc1cc2c(c(O)c1C(=O)NCC(=O)O)-c1c(cc3c(c1O)C(=O)c1cc(C#N)cc(O)c1C3=O)[C@H](O)[C@H]2O[C@@H]1O[C@H](C)[C@H](O)[C@H](O[C@@H]2OC[C@@H](O)[C@H](O)[C@H]2O)[C@H]1O [IIL, 11-Cyano-11-dexylosyloxy pradimicin T1] the MIC [1] was 12.5 µg/mL (≈ 15.5 µM), the MIC [2] was 25 µg/mL (≈ 30.9 µM) and the MIC [3] was 6.3 µg/mL (≈ 7.79 µM).

CN[C@@H]1[C@H](O[C@@H]2OC[C@@H](O)[C@H](O)[C@H]2O)[C@@H](O)[C@H](O[C@H]2c3cc(C)c(C(=O)N[C@H](C)C(=O)O)c(O)c3-c3c(cc4c(c3O)C(=O)c3cc(OC)cc(O)c3C4=O)[C@@H]2O)O[C@@H]1C [Pradimicin A, reference compound] was tested, and the MIC [1] was 6.3 µg/mL (≈ 7.49 µM), the MIC [2] was 12.5 µg/mL (≈ 14.9 µM) and the MIC [3] was 1.6 µg/mL (≈ 1.9 µM).

For CC1(C)S[C@@H]2[C@H](NC(=O)[C@H](N)c3ccccc3)C(=O)N2[C@H]1C(=O)O [ampicillin], the “Antibiotic susceptibility of strain AA 3798” value (“Antibiotic susceptibility” for short) ([4]; disk 20 µg) was “resistance”.

For CC1=C(C(=O)O)N2C(=O)[C@@H](NC(=O)[C@H](N)c3ccccc3)[C@H]2SC1 [cephalexin], the “Antibiotic susceptibility” value ([4]; disk 10 µg) was “resistance”.

In the case of O=C(N[C@H](CO)[C@H](O)c1ccc([N+](=O)[O-])cc1)C(Cl)Cl [chloramphenicol], the “Antibiotic susceptibility” value ([4]; disk 10 µg) is reported as “susceptible”.

For O=C(O)[C@H]1/C(=C/CO)O[C@@H]2CC(=O)N21 [clavulanic acid], the “Antibiotic susceptibility” value ([4]; disk 1 µg) was “susceptible”.

With CC[C@H]1OC(=O)[C@H](C)[C@@H](O[C@H]2C[C@@](C)(OC)[C@@H](O)[C@H](C)O2)[C@H](C)[C@@H](O[C@@H]2O[C@H](C)C[C@H](N(C)C)[C@H]2O)[C@](C)(O)C[C@@H](C)C(=O)[C@H](C)[C@@H](O)[C@]1(C)O [erythromycin] the “Antibiotic susceptibility” value ([4]; disk 10 µg) was “resistance”.

In the case of C[C@@H]1O[C@@H]1P(=O)(O)O [fosfomycin], the “Antibiotic susceptibility” value ([4]; disk 50 µg) is reported as “resistance”.

For CO[C@@H]1[C@@H](O[C@@H]2O[C@H](C)[C@@H](O[C@H]3C[C@@](C)(O)[C@@H](OC(=O)CC(C)C)[C@H](C)O3)[C@H](N(C)C)[C@H]2O)[C@@H](CC=O)C[C@@H](C)[C@@H](O)/C=C/C=C/C[C@@H](C)OC(=O)C[C@H]1OC(C)=O [josamycin], the “Antibiotic susceptibility” value ([4]; disk 15 µg) was “resistance”.

In the case of CCC[C@@H]1C[C@@H](C(=O)N[C@@H]([C@H]2O[C@H](SC)[C@H](O)[C@@H](O)[C@H]2O)[C@@H](C)O)N(C)C1 [lincomycin], the “Antibiotic susceptibility” value ([4]; disk 15 µg) is reported as “resistance”.

CCn1cc(C(=O)O)c(=O)c2ccc(C)nc21 [nalidixic acid] was tested, and the “Antibiotic susceptibility” value ([4]; disk 15 µg) was “resistance”.

In the case of CCn1cc(C(=O)O)c(=O)c2cc(F)c(N3CCNCC3)cc21 [norfloxacin], the “Antibiotic susceptibility” value ([4]; disk 2 µg) is reported as “susceptible”.

With CC1(C)S[C@@H]2[C@H](NC(=O)[C@H](C(=O)O)c3ccsc3)C(=O)N2[C@H]1C(=O)O [ticarcillin] the “Antibiotic susceptibility” value ([4]; disk 2 µg) was “susceptible”.

For NC[C@H]1O[C@H](O[C@H]2[C@H](O)[C@@H](O[C@H]3O[C@H](CO)[C@@H](O)[C@H](N)[C@H]3O)[C@H](N)C[C@@H]2N)[C@H](N)C[C@@H]1O [tobramycin], the “Antibiotic susceptibility” value ([4]; disk 10 µg) was “resistance”.

For colistin, the “Antibiotic susceptibility” value ([4]; disk 50 U) was “susceptible”.

For gentamicin, the “Antibiotic susceptibility” value ([4]; disk 5 µg) was “resistance”.

With polymyxin B the “Antibiotic susceptibility” value ([4]; disk 300 U) was “resistance”.
